Data on 2 compounds can be found in ChEMBL document CHEMBL1145720, “Daleformis, a new phytoalexin from the roots fo Dalea filiciformis: an inhibitor of endothelin converting enzyme” (J Nat Prod, 1997).

A short description of this assay: Inhibition of ECE.

SMILES strings stand for the structures. The source made the active and inactive calls. The calls are words filed in the database; no cut-off is given here.

Regarding `CC(=O)Oc1ccc2c(c1)O[C@@H]1c3ccc4c(c3O[C@@H](OC(C)=O)[C@H]21)C=CC(C)(C)O4`, the outcome was inactive.

`CC1(C)C=Cc2c(ccc3c2O[C@@H](O)[C@@H]2c4ccc(O)cc4O[C@H]32)O1` [DALEFORMIS] displayed an IC50 of 9 µM.
